As a reminder, the pIC50 is the IC50 on a negative log10 scale, so that one unit is a factor of ten. A low value points to a high IC50.

pIC50: −log10 of the molar value.

Sequence of Glutamate receptor 4 (P48058 whole entry): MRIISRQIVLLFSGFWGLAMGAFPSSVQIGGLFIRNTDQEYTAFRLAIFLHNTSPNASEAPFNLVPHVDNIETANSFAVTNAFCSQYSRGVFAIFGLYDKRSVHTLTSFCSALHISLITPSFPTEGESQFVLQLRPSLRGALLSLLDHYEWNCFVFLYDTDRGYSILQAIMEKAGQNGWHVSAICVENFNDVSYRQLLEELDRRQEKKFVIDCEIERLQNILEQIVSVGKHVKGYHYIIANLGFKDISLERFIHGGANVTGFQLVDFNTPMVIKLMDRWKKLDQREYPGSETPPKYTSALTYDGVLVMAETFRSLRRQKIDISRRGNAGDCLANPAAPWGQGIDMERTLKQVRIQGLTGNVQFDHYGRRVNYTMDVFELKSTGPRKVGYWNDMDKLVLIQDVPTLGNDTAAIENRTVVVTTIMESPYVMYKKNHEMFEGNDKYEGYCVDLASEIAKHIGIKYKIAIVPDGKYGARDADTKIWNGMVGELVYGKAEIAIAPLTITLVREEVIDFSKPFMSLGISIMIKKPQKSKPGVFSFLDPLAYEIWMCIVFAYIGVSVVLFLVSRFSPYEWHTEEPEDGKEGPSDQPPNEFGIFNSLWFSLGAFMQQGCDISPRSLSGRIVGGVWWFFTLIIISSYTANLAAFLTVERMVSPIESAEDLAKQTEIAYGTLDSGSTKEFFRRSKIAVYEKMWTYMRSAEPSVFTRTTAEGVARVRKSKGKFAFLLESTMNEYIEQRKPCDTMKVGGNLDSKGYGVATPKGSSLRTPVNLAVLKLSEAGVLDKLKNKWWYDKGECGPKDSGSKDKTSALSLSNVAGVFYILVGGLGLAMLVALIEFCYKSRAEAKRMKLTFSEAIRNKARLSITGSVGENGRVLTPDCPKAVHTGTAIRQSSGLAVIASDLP

The first assay concerns the target Glutamate receptor 4 (Homo sapiens, UniProt P48058). The assay can be described thus: Binding affinity against AMPA receptor using [3H]AMPA as the radioligand.
In turn, `O=C(O)C1Nc2cc(Cl)cc(Cl)c2S(=O)(=O)N1Cc1cccc(Br)c1` (stereo not given) showed a negative logarithm of the IC50 (pIC50) of 4.42.

For another assay, the target named is Glutamate NMDA receptor. The assay can be described thus: Binding affinity at the glycine binding site of the N-methyl-D-aspartate glutamate receptor in rat cortical membranes using [3H]dichlorokynurenate ([3H]DCKA) as radioligand. It counts as cell membranes, Membrane.
The molecule `O=C(O)CCc1c(C(=O)O)[nH]c2cc(Cl)cc(Cl)c12` had a pIC50 of 7.30.

Take `CCOC(=O)C1Nc2cc(Cl)cc(Cl)c2S(=O)(=O)N1C` (stereo not given): the negative logarithm of the IC50 (pIC50) is 6.40.

As to `CCOC(=O)C1Nc2cc(Cl)cc(Cl)c2S(=O)(=O)N1Cc1cccc(C)c1` (stereo not given), the pIC50 was 7.85.

In the case of `CCOC(=O)C1Nc2cc(Cl)cc(Cl)c2S(=O)(=O)N1Cc1cccc(Oc2ccccc2)c1` (stereo not given), the negative logarithm of the IC50 (pIC50) was 8.05.

`O=C(O)C1Nc2cc(Cl)cc(Cl)c2S(=O)(=O)N1Cc1cccc(I)c1` (stereo not given) gave a pIC50 of 8.10.

The molecule `CCOC(=O)C1Nc2cc(Cl)cc(Cl)c2S(=O)(=O)N1Cc1cccc(C#N)c1` (stereo not given) showed a negative-log IC50 (pIC50) of 7.77.

Consider `CCOC(=O)C1Nc2cc(Cl)cc(Cl)c2S(=O)(=O)N1CCSc1ccccc1` (stereo not given), for which the negative logarithm of the IC50 (pIC50) is 7.42.

In the case of `O=C(O)C1Nc2cc(Cl)cc(Cl)c2S(=O)(=O)N1Cc1ccccc1C(F)(F)F` (stereo not given), the pIC50 was 7.00.

For `O=C(O)C1Nc2cc(Cl)cc(Cl)c2S(=O)(=O)N1Cc1ccccc1` (stereo not given), the negative-log IC50 (pIC50) was 7.32.

The molecule `CCOC(=O)C1Nc2cc(Cl)cc(Cl)c2S(=O)(=O)N1Cc1ccc(F)cc1` (stereo not given) gave a negative-log IC50 (pIC50) of 7.36.

`O=C(O)C1Nc2cc(Cl)cc(Cl)c2S(=O)(=O)N1Cc1cccc(F)c1` (stereo not given) gave a negative logarithm of the IC50 (pIC50) of 7.89.

As for `O=C(O)c1cc(O)c2c(Cl)cc(Cl)cc2n1`, the pIC50 is 7.34.

As for `CCOC(=O)C1Nc2cc(Cl)cc(Cl)c2S(=O)(=O)N1Cc1cccc([N+](=O)[O-])c1` (stereo not given), the negative-log IC50 (pIC50) is 7.92.

Consider `CCOC(=O)C1Nc2cc(Cl)cc(Cl)c2S(=O)(=O)N1Cc1ccc(C)cc1` (stereo not given), for which the pIC50 was 7.35.

`CCOC(=O)C1Nc2cc(Cl)cc(Cl)c2S(=O)(=O)N1Cc1cccc(-c2ccccc2)c1` (stereo not given) had a pIC50 of 7.70.

The molecule `CCOC(=O)C1Nc2cc(Cl)cc(Cl)c2S(=O)(=O)N1Cc1ccc(OC)cc1` (stereo not given) had a negative logarithm of the IC50 (pIC50) of 7.40.

Molecule `O=C(O)C1Nc2cc(Cl)cc(Cl)c2S(=O)(=O)N1CCCc1ccccc1` (stereo not given) had a pIC50 of 7.48.

The molecule `O=C(O)C1Nc2cc(Cl)cc(Cl)c2S(=O)(=O)N1Cc1ccc(C(F)(F)F)cc1` (stereo not given) had a negative-log IC50 (pIC50) of 7.04.

In the case of `O=C(O)CN1C(C(=O)O)Nc2cc(Cl)cc(Cl)c2S1(=O)=O` (stereo not given), the pIC50 is 5.02.

Take `O=C(O)C1Nc2cc(Cl)cc(Cl)c2S(=O)(=O)N1CCCCCc1ccccc1` (stereo not given): the negative-log IC50 (pIC50) was 7.44.

On to `O=C(O)C1Nc2cc(Cl)cc(Cl)c2S(=O)(=O)N1Cc1cccc(OC(F)(F)F)c1` (stereo not given), for which the pIC50 is 7.70.

The molecule `CCOC(=O)C1Nc2cc(Cl)cc(Cl)c2S(=O)(=O)N1Cc1cccc(OC)c1` (stereo not given) showed a pIC50 of 7.92.

For `CCOC(=O)C1Nc2cc(Cl)cc(Cl)c2S(=O)(=O)N1Cc1ccc(Cl)cc1` (stereo not given), the negative logarithm of the IC50 (pIC50) is 7.70.

On to `CCOC(=O)C1Nc2cc(Cl)cc(Cl)c2S(=O)(=O)N1Cc1ccccc1Cl` (stereo not given), for which the pIC50 is 7.32.

For `CCOC(=O)C1Nc2cc(Cl)cc(Cl)c2S(=O)(=O)N1CC(=O)c1ccccc1` (stereo not given), the negative-log IC50 (pIC50) was 7.66.

The molecule `CCOC(=O)C1Nc2cc(Cl)cc(Cl)c2S(=O)(=O)N1CCOc1ccccc1` (stereo not given) gave a pIC50 of 7.39.

`O=C(O)C1Nc2cc(Cl)cc(Cl)c2S(=O)(=O)N1c1ccccc1` (stereo not given) gave a negative logarithm of the IC50 (pIC50) of 5.59.

Molecule `O=C(O)C1Nc2cc(Cl)cc(Cl)c2S(=O)(=O)N1CCS(=O)(=O)c1ccccc1` (stereo not given) showed a pIC50 of 7.15.

The molecule `CCOC(=O)C1Nc2cc(Cl)cc(Cl)c2S(=O)(=O)N1Cc1cccc(C(F)(F)F)c1` (stereo not given) showed a pIC50 of 7.74.

`CCOC(=O)C1Nc2cc(Cl)cc(Cl)c2S(=O)(=O)N1Cc1cccc(N)c1` (stereo not given) gave a pIC50 of 7.54.

`CCOC(=O)C1Nc2cc(Cl)cc(Cl)c2S(=O)(=O)N1Cc1cccc(Cl)c1` (stereo not given) had a negative logarithm of the IC50 (pIC50) of 7.96.

Take `O=C(O)C1Nc2cc(Cl)cc(Cl)c2S(=O)(=O)N1CCc1ccccc1` (stereo not given): the negative logarithm of the IC50 (pIC50) is 7.05.

Molecule `CCOC(=O)C1Nc2cc(Cl)cc(Cl)c2S(=O)(=O)N1Cc1ccccc1F` (stereo not given) had a pIC50 of 7.59.

Consider `O=C(O)C1Nc2cc(Cl)cc(Cl)c2S(=O)(=O)N1CCCCc1ccccc1` (stereo not given), for which the pIC50 was 7.11.

`CCOC(=O)C1Nc2cc(Cl)cc(Cl)c2S(=O)(=O)N1Cc1ccccc1C` (stereo not given) had a pIC50 of 7.10.

Molecule `COc1ccccc1CN1C(C(=O)O)Nc2cc(Cl)cc(Cl)c2S1(=O)=O` (stereo not given) showed a pIC50 of 7.68.

Take `O=C(Nc1ccccc1)N[C@H]1C[C@H](C(=O)O)Nc2cc(Cl)cc(Cl)c21` (single isomer, unassigned): the negative-log IC50 (pIC50) is 7.59.

On to `O=C(O)C1Nc2cc(Cl)cc(Cl)c2S(=O)(=O)N1Cc1cccc(Br)c1` (single isomer, unassigned; (-)), for which the pIC50 was 8.40.

For `O=C(O)C1Nc2cc(Cl)cc(Cl)c2S(=O)(=O)N1Cc1cccc(Br)c1` (stereo in doubt; (+)8k), the negative logarithm of the IC50 (pIC50) was 5.73.

The values above are taken from ChEMBL document CHEMBL1128020, “Synthesis and sar of 2h-1,2,4-benzothiadiazine-1,1-dioxide-3-carboxylic acid derivatives as novel potent glycine antagonists of the nmda receptor-channel complex” (Bioorg Med Chem Lett, 1994).
